Measurements taken from PubChem BioAssay (NCI).
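Growth conditions: 96-well plates. Treatment: test compound, 48 hours, 5 concentrations. Analysis: linear interpolation between bracketing concentrations; unreached endpoints set to highest concentration. TGI: total growth inhibition.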

Experiments:
Experiment in all cases: growth of human tumour cells (NCI), 48 h
[1] = system: 786-0 renal
[2] = system: A498 renal
[3] = system: A549 NSCLC
[4] = system: ACHN renal
[5] = system: BT-549 breast
[6] = system: CAKI-1 renal
[7] = system: CCRF-CEM leukemia
[8] = system: COLO 205 colon
[9] = system: DU-145 prostate
[10] = system: EKVX NSCLC
[11] = system: HCC-2998 colon
[12] = system: HCT-116 colon
[13] = system: HCT-15 colon
[14] = system: HOP-62 NSCLC
[15] = system: HOP-92 NSCLC
[16] = system: HS 578T breast
[17] = system: HT29 colon
[18] = system: IGROV1 ovarian
[19] = system: K-562 leukemia
[20] = system: KM12 colon
[21] = system: M14 melanoma
[22] = system: MALME-3M melanoma
[23] = system: MCF7 breast
[24] = system: MDA-MB-231 breast
[25] = system: MDA-MB-435
[26] = system: MDA-N
[27] = system: MOLT-4 leukemia
[28] = system: NCI-H226 lung
[29] = system: NCI-H23 lung
[30] = system: NCI-H460 lung
[31] = system: NCI-H522 lung
[32] = system: NCI/ADR-RES ovarian
[33] = system: OVCAR-3 ovarian
[34] = system: OVCAR-4 ovarian
[35] = system: OVCAR-5 ovarian
[36] = system: OVCAR-8 ovarian
[37] = system: PC-3 prostate
[38] = system: RPMI-8226 leukemia
[39] = system: RXF 393 renal
[40] = system: SF-268 CNS
[41] = system: SF-295 CNS
[42] = system: SF-539 CNS
[43] = system: SK-MEL-28 melanoma
[44] = system: SK-MEL-5 melanoma
[45] = system: SK-OV-3 ovarian
[46] = system: SN12C renal
[47] = system: SNB-19 CNS
[48] = system: SNB-75 CNS
[49] = system: SW-620 colon
[50] = system: T-47D breast
[51] = system: U251 CNS
[52] = system: UACC-257 melanoma
[53] = system: UACC-62 melanoma
[54] = system: UO-31 renal

Measured: TGI

COc1ccc(OC)c2cc(Cc3ccc(N(C)C)cc3)c(=O)c(Cc3ccc(N(C)C)cc3)cc12
96.2 µM: [2]
89.9 µM: [31]
84.5 µM: [38]
87.7 µM: [16]
> 100 µM: all other assays above
